Three molecules from ChEMBL document CHEMBL4261613, “Discovery of a potent orally bioavailable retinoic acid receptor-related orphan receptor-gamma-t (RORγt) inhibitor, S18-000003” (Bioorg Med Chem Lett, 2018) can be followed below.

Usually Tmax stands for the time at which the peak concentration occurs. The inhibition in vivo is the share of the control response that was lost under treatment. As usually defined, the AUC is concentration integrated over time. A high value points to high exposure. For orientation: Cmax means the maximum level reached in the sampled fluid or tissue. By IC50 is commonly meant the concentration at which inhibition is half-maximal.

Series [1] can be described thus: Tmax in mouse at 30 mg/kg, po. Format: ADME, organism-based. The note with it: in vivo.
For series [2], the system named is Mus musculus. Put plainly: In-vivo transrepression of RORgammat in po dosed mouse assessed as inhibition of IL23-stimulated IL17 production administered 30 mins before and 6 hrs after IL-23 injection in skin intradermally measured after 24 hrs by ELISA. It counts as functional, organism-based.
The test system of series [3] is Mus musculus. Nature of the series: In-vivo transrepression of RORgammat in mouse assessed as inhibition of IL23-stimulated IL17 production at 30 mg/kg, po administered 30 mins before and 6 hrs after IL-23 injection in skin intradermally measured after 24 hrs by ELISA relative to control. Format: functional. (In general: In an ELISA, binding on a coated surface is turned into a signal by an enzyme label.)

Series [4] in a line: AUC in mouse at 30 mg/kg, po. It counts as ADME, organism-based. The following applies: in vivo.
Series [5] can be described thus: AUC in mouse at 100 mg/kg, po. The following applies: in vivo. Format: ADME, organism-based.
Series [6] is described as follows: Tmax in rat at 1 mg/kg, po. Format: ADME, organism-based. The note with it: in vivo.
The nature of series [7]: Cmax in mouse at 100 mg/kg, po. It counts as ADME, organism-based. The arrangement: dose 100 mg/kg, route oral. The following applies: in vivo.
A short description of series [8]: Cmax in mouse at 30 mg/kg, po. It counts as ADME, organism-based. Details: dose 30 mg/kg, route oral. The note with it: in vivo.
The target of series [9] is T1, Nuclear receptor ROR-beta (Homo sapiens, UniProt Q92753).
T1 sequence (Q92753 whole entry): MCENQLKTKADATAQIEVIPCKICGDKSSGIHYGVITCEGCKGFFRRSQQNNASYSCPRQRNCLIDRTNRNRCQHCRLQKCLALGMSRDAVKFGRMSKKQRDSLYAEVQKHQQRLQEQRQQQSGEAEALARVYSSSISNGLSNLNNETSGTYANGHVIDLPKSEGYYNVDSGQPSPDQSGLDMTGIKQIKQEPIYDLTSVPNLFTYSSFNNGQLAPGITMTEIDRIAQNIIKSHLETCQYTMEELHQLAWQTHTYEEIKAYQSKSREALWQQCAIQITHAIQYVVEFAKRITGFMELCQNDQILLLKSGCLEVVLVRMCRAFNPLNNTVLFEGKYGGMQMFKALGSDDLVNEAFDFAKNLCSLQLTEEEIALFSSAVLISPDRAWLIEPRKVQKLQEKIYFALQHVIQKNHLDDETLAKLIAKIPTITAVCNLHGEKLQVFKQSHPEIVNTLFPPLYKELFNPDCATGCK
Nature of the series: Transrepression of recombinant human GAL4-DBD fused RORbeta LBD expressed in HEK293 cells after 20 hrs by luciferase reporter gene assay. Format: cell-based.

Series [10] concerns the target T2, Nuclear receptor ROR-alpha (Homo sapiens, UniProt P35398).
T2 sequence (P35398 whole entry): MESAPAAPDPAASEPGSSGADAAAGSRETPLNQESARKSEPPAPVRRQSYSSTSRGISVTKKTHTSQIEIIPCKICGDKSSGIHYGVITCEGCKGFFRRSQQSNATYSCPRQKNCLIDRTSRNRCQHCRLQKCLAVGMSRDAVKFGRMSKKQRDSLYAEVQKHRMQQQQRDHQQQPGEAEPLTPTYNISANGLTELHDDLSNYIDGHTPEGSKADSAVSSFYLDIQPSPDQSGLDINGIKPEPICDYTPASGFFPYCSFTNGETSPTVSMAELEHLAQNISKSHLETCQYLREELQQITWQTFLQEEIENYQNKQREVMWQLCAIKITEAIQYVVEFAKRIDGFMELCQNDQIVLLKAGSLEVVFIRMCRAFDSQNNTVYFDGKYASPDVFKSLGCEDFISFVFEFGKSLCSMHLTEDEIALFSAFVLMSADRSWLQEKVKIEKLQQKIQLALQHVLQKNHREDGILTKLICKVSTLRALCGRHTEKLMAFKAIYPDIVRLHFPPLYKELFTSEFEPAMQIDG
Put plainly: Displacement of [3H]T0901317 from recombinant human GST-fused RORalpha LBD after 1 to 4 hrs by microbeta scintillation counting method.

Series [11] can be described thus: Tmax in mouse at 100 mg/kg, po. Format: ADME, organism-based. The following applies: in vivo.
The test system of series [12] is Mus musculus. Nature of the series: In-vivo transrepression of RORgammat in mouse assessed as inhibition of IL23-stimulated IL17 production at 100 mg/kg, po administered 30 mins before and 6 hrs after IL-23 injection in skin intradermally measured after 24 hrs by ELISA relative to control. Format: functional.

The structures appear in SMILES notation.

Regarding `CCS(=O)(=O)c1ccc(CC(=O)Nc2ccc(C(C)(C)C(=O)Nc3cc(C#N)ccn3)c(F)c2)cc1`, the Tmax in [1] came out at 0.5 h; in series [6], 1 h; in [11], 0.5 h. The inhibition entry in the series with Mus musculus [2] is “Dose-dependent effect”. Also, the inhibition in vivo at 30 mg/kg with Mus musculus [3] stood at 22%. Besides, the AUC in series [4] came to 4740 ng·h/mL; in [5], 23000 ng·h/mL. Moreover, the peak concentration (Cmax) in series [7] was determined as 8450 ng/mL; in series [8], 2700 ng/mL. For the same molecule, the IC50 in [9] and in series [10] was greater than 10 µM in each case. The inhibition in vivo at 100 mg/kg with Mus musculus [12] was 38%.
As to `CCS(=O)(=O)c1ccc(CC(=O)Nc2ccc(C(C)(C)C(=O)Nc3ccc(F)cc3)c(F)c2)cc1`, in [6], the Tmax worked out at 2.5 h. The half-inhibitory concentration (IC50) in [9] and in series [10] was greater than 10 µM each time.
Turning to `CCS(=O)(=O)c1ccc(CC(=O)Nc2ccc(C(C)(C)C(=O)Nc3ccc(F)cc3F)c(F)c2)cc1`, the time of peak concentration (Tmax) in [1] stood at 1.5 h; in series [6] it was 4 h; in series [11] it was 0.8 h. In addition, the inhibition result in the series on Mus musculus [2] is “Dose-dependent effect”. In addition, in the series with Mus musculus [3], the inhibition in vivo at 30 mg/kg came out at 41%. The area under the curve (AUC) in [4] stood at 43500 ng·h/mL; in [5], 96300 ng·h/mL. Besides, the values for the Cmax in [7] and in series [8] were 17800 ng/mL and 8350 ng/mL, respectively. Besides, the IC50 in series [9] and in series [10] was greater than 10 µM each time. Moreover, the inhibition in vivo at 100 mg/kg in the series with Mus musculus [12] was 63%.
